According to ChEMBL document CHEMBL4689842, “EUbOPEN Chemogenomics Library wave 1” (2021):

Columns and labels:
Format in all cases: toxicity, cell-based
Fibroblast = assay: Incucyte cell viability with human fibroblast; conditions: 10 µM, compound concentration 10 uM
U2OS = assay: Incucyte cell viability with U2OS; conditions: human, 10 µM, compound concentration 10 uM
HEK-293T = assay: Incucyte cell viability with HEK293T; conditions: human, 10 µM, compound concentration 10 uM
[1] = 0 h, replicate number 2, timepoint 0 hours
[2] = 12 h, replicate number 1, timepoint 12 hours
[3] = 18 h, replicate number 1, timepoint 18 hours
[4] = 24 h, replicate number 1, timepoint 24 hours
[5] = 0 h, replicate number 1, timepoint 0 hours
[6] = 6 h, replicate number 1, timepoint 6 hours
[7] = 12 h, replicate number 2, timepoint 12 hours
[8] = 18 h, replicate number 2, timepoint 18 hours
[9] = 24 h, replicate number 2, timepoint 24 hours
[10] = 6 h, replicate number 2, timepoint 6 hours
Also: filed as whole numbers so only -1 and 0 and 1 occur.

Compound	Growth Rate (Fibroblast; [1])	Growth Rate (Fibroblast; [2])	Growth Rate (Fibroblast; [3])	Growth Rate (Fibroblast; [4])	Growth Rate (U2OS; [5])	Growth Rate (U2OS; [6])	Growth Rate (U2OS; [2])	Growth Rate (U2OS; [3])	Growth Rate (U2OS; [4])	Growth Rate (HEK-293T; [6])	Growth Rate (HEK-293T; [7])	Growth Rate (HEK-293T; [4])	Growth Rate (Fibroblast; [5])	Growth Rate (Fibroblast; [6])	Growth Rate (Fibroblast; [7])	Growth Rate (U2OS; [10])	Growth Rate (HEK-293T; [5])	Growth Rate (HEK-293T; [1])	Growth Rate (HEK-293T; [3])	Growth Rate (U2OS; [7])	also measured
CC(C)N(CCCNC(=O)Nc1ccc(C(C)(C)C)cc1)C[C@H]1O[C@@H](n2cc(Br)c3c(N)ncnc32)[C@H](O)[C@@H]1O	0	1	1	1	0	1	1	1	1	0	0	1	–	–	–	–	–	–	–	–	Growth Rate (HEK-293T; [8]): 1
COCCOc1nc(-c2ccc(Cl)nc2)nc2c1CN(C(=O)c1ncn3ccccc13)CC2 [THPP-1]	–	1	1	1	0	0	1	0	0	–	0	1	0	0	0	1	0	1	1	–	Growth Rate (Fibroblast; [8]): 0; Growth Rate (Fibroblast; [9]): 0; Growth Rate (HEK-293T; [10]): 0; Growth Rate (HEK-293T; [9]): 0
O[C@H]1CC[C@H](Nc2ncc3nc(Nc4c(F)cc(F)cc4F)n([C@H]4CCOC4)c3n2)CC1 [TANZISERTIB]	0	1	1	1	0	0	0	0	0	–	–	–	–	0	0	–	0	1	–	–	Growth Rate (U2OS; [1]): 1
O=C(O)CC/C=C\C[C@@H]1CO[C@H](c2ccccc2Cl)O[C@@H]1c1ccccc1O	–	1	1	1	0	–	1	0	1	1	0	1	0	1	–	0	0	–	1	0	Growth Rate (Fibroblast; [10]): 0; Growth Rate (U2OS; [9]): 0; Growth Rate (HEK-293T; [10]): 0; Growth Rate (HEK-293T; [2]): 1
COc1cc(-c2cn([C@H]3CCc4ccccc4N(CC(F)(F)F)C3=O)nn2)ccc1-n1ccc(C)n1	0	0	1	0	0	0	0	0	0	0	–	0	–	0	1	–	–	1	0	1	Growth Rate (Fibroblast; [8]): 0; Growth Rate (HEK-293T; [2]): 0
O=C1CCc2cc(Nc3cc(OC4CCOCC4)c([N+](=O)[O-])cc3Cl)ccc2N1	0	0	0	0	0	0	0	0	0	–	1	–	–	0	1	1	0	1	–	1	Growth Rate (U2OS; [9]): 1; Growth Rate (HEK-293T; [10]): 1; Growth Rate (HEK-293T; [9]): 1
O=C([O-])c1cc2ccccc2c(Cc2c(O)c(C(=O)[O-])cc3ccccc23)c1O.[Na+].[Na+]	–	1	1	1	0	–	0	0	0	1	–	1	0	1	–	1	0	–	1	1	Growth Rate (U2OS; [9]): 1; Growth Rate (HEK-293T; [2]): 1
CN1CCc2c(c3ccccc3n2Cc2ccc(C(=O)NO)cc2)C1 [TUBASTATIN A]	–	–	1	1	0	1	1	1	1	–	–	–	1	–	0	–	0	1	–	–	Growth Rate (Fibroblast; [10]): 0; Growth Rate (Fibroblast; [8]): 0
COc1cc2ncnc(Nc3ccc(F)c(Cl)c3)c2cc1OCCCN1CCOCC1 [GEFITINIB]	–	0	0	0	0	0	0	0	0	0	–	0	0	–	–	–	0	–	0	1	Growth Rate (Fibroblast; [10]): 1; Growth Rate (U2OS; [8]): 1; Growth Rate (U2OS; [9]): 1; Growth Rate (HEK-293T; [2]): 0
